Laboratory results reported in patent US11702422B2, “Imidazopyridazines as modulators of IL-17” (Janssen Pharmaceutica NV, priority 2020, dated 2023).
pIC50: −log10 of the molar value. Structures can show the parent of a compound that is named as a salt.

Experiments:
[1] = target: IL-17A(FLAG-Tagged): IL-17RA(His-Tagged) (Homo sapiens, UniProt Q16552, K93Q); assay: IL-17A(FLAG-Tagged): IL-17RA(His-Tagged) Binding Disruption Eu-HTRF Assay; conditions: IL-17A/IL-17RA binding disruption, simple average if tested more than once
Sequence of UniProt Q16552 (Q16552 with tags, fused parts or gaps K93Q): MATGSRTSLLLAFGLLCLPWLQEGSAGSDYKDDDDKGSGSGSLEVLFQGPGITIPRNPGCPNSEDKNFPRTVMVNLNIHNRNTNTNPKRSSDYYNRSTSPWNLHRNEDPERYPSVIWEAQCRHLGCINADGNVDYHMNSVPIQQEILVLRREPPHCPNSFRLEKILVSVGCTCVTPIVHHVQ
Text: IL-17A(FLAG-Tagged): IL-17RA(His-Tagged) Binding Disruption Eu-HTRF Assay
An antibody directed against the FLAG tag of IL-17A (SEQ ID NO:1) is labeled with the HTRF donor chromophore (Europium-cryptate). IL-17A is present as a dimer that is “locked into” this quaternary structure due to the formation of loop-spanning […] disulfide bridges. The construct of IL-17RA used in the assay excludes the […] portion of the receptor and is fused to a C-terminal 10×His tag (SEQ ID NO:2). An antibody directed against the His tag of the IL-17RA chimera is labeled with the HTRF acceptor chromophore (“D2”). The fluorescence-resonance energy transfer (FRET) depends on the vicinity of the donor chromophore to the acceptor, and interruption of the binding between the IL-17A and IL-17RA causes the reduction/loss of FRET. Therefore, this assay allows to evaluate the compound effect on the binding IL-17A and IL-17RA by monitoring the fluorescence intensity of donor vs acceptor. The assay is run as described below.
40 nl of 2-fold serial diluted compound solution for total 22 dilution points is added into each well of a 1536-well, white, low-volume, non-binding plate (Greiner #782904), then 2 μl of FLAG tagged IL-17A at 2× final concentration (2.5 nM) in solution of PBS+0.01% Triton-X100 is added to each well. The assay plate is briefly centrifuged then incubated for 1 h at rt. A mixed solution is prepared containing 2×5 nM 10HIS×IL-17RA, 2×2.5 nM Eu-anti-FLAG (CISBIO), 2×5 nM D2-anti-HIS (CISBIO) in PBS+0.01% Triton-X100+200 mM Potassium Fluoride (Sigma 60238) and 2 μl of mix is added to each well of the assay plate. The plate is briefly centrifuged then incubated for 2 h at rt. The HTRF intensities at the wavelength of donor (620 nm) and acceptor (665 nm) are measured using BMG Pherastar. The ratio between intensities at two wavelengths is calculated and plotted against the compound concentration and the data is fitted to a one-site competition model to yield IC50 of the compound.

[2] = system: IL-17A-induced G-CSF production in human normal keratinocyte (NHK); assay: NHK Assay: IL-17A-induced G-CSF production in human normal keratinocytes; format: cell-based; conditions: Homo sapiens, Keratinocyte, 24 h, adult normal human keratinocytes, IL-17A 5 ng/mL, simple average if tested more than once
Description: IL-17A acts directly on keratinocytes through binding to dimeric receptor IL-17RA/RC and drives the production of a number of inflammatory mediators known to be elevated in psoriasis lesional tissue. IL-17A small molecule inhibitors that block the IL-17A to interact with IL-17R would inhibit the IL-17A signaling in its targeted cells such as keratinocytes. The compound functional activity is evaluated for its impact on IL-17A-induced G-CSF production in human normal keratinocyte (NHK).
Adult normal human keratinocytes are cultured in keratinocyte growth medium (Lonza) in a flask till reaching ˜ 90% confluence, then cells are transferred to a 384-well plate at density of 3000-4000 cell/well. Recombinant human IL-17A (Gibco PHC9174) is pre-incubated with titrated compound or DMSO for 1 h at rt then added to the cell culture plate. The final concentration of IL-17A is 5 ng/mL and DMSO is 0.2%, in the culture containing 5% FBS. Cells are cultured/treated for 24 h at 37° C. Supernatants are collected and G-CSF production is measured through HTRF technology using Human G-CSF Kit (CisBio). G-CSF concentration was extrapolated from the standard curve and IC50 is determined using GraphPad Prism. Cell viability is also evaluated using CellTiter-Glo kit (Promega) and effect of compound on cell viability is compared to DMSO control.

pIC50 [1]	Structure (SMILES)	pIC50 [2]
6.74	O=C(N[C@H](c1cn2ncc(CNC(=O)[C@@H]3NCCC[C@H]3C(F)(F)F)cc2n1)C1CCCCC1)c1ccccc1 (relative stereo) [Example 1, (Trans-2R*,3R*)—N-((2-((S)-benzamido(cyclohexyl)methyl)imidazo[1,2-b]pyridazin-7-yl)methyl)-3-(trifluoromethyl)piperidine-2-carboxamide hydrochloride]	6.52
5.12	O=C(N[C@H](c1cn2ncc(CNC(=O)[C@H]3NCCC[C@@H]3C(F)(F)F)cc2n1)C1CCCCC1)c1ccccc1 (relative stereo) [Example 2, (Trans-2S*,3S*)—N-((2-((S)-benzamido(cyclohexyl)methyl)imidazo[1,2-b]pyridazin-7-yl)methyl)-3-(trifluoromethyl)piperidine-2-carboxamide hydrochloride]	< 4.70
7.01	Cn1nccc1C(=O)N[C@H](c1cn2ncc(CNC(=O)[C@@H]3NCCC[C@H]3C(F)(F)F)cc2n1)C1CCCCC1 (relative stereo) [Example 3, (Trans-2R*,3R*)—N-((2-((S)-cyclohexyl(1-methyl-1H-pyrazole-5-carboxamido)methyl)imidazo[1,2-b]pyridazin-7-yl)methyl)-3-(trifluoromethyl)piperidine-2-carboxamide hydrochloride]	6.52
6.44	O=C(N[C@H](c1cn2ncc([C@H](NC(=O)[C@@H](O)CC(F)(F)F)C3CC3)cc2n1)C1CCC(F)(F)CC1)c1cnn(CC(F)(F)F)n1 (relative stereo) [Example 31, N—((S)-(7-((R*)-Cyclopropyl((S*)-4,4,4-trifluoro-2-hydroxybutanamido)methyl)imidazo[1,2-b]pyridazin-2-yl)(4,4-difluorocyclohexyl)methyl)-2-(2,2,2-trifluoroethyl)-2H-1,2,3-triazole-4-carboxamide]	5.89
6.57	CC(C)n1nccc1C(=O)N[C@H](c1cn2ncc([C@H](NC(=O)C[C@@H](O)C(F)(F)F)C3CC3)cc2n1)C1CCC(F)(F)CC1 (relative stereo) [Example 130, N—((S)-(7-((R*)-Cyclopropyl((R*)-4,4,4-trifluoro-3-hydroxybutanamido)methyl)imidazo[1,2-b]pyridazin-2-yl)(4,4-difluorocyclohexyl)methyl)-1-isopropyl-1H-pyrazole-5-carboxamide]	6.41
7.06	CC(C)n1nccc1C(=O)N[C@H](c1cn2ncc([C@H](NC(=O)C[C@H](O)C(F)(F)F)C3CC3)cc2n1)C1CCC(F)(F)CC1 (relative stereo) [Example 131, N—((S)-(7-((R*)-Cyclopropyl((S*)-4,4,4-trifluoro-3-hydroxybutanamido)methyl)imidazo[1,2-b]pyridazin-2-yl)(4,4-difluorocyclohexyl)methyl)-1-isopropyl-1H-pyrazole-5-carboxamide]	7.00
6.66	CC(C)n1nccc1C(=O)N[C@H](c1cn2ncc([C@H](NC(=O)C[C@@](C)(O)C(F)(F)F)C3CC3)cc2n1)C1CCC(F)(F)CC1 (relative stereo) [Example 132, N—((S)-(7-((R*)-Cyclopropyl((R*)-4,4,4-trifluoro-3-hydroxy-3-methylbutanamido)methyl)imidazo[1,2-b]pyridazin-2-yl)(4,4-difluorocyclohexyl)methyl)-1-isopropyl-1H-pyrazole-5-carboxamide]	6.59
6.82	CC(C)n1nccc1C(=O)N[C@H](c1cn2ncc([C@H](NC(=O)C[C@](C)(O)C(F)(F)F)C3CC3)cc2n1)C1CCC(F)(F)CC1 (relative stereo) [Example 133, N—((S)-(7-((R*)-Cyclopropyl((S*)-4,4,4-trifluoro-3-hydroxy-3-methylbutanamido)methyl)imidazo[1,2-b]pyridazin-2-yl)(4,4-difluorocyclohexyl)methyl)-1-isopropyl-1H-pyrazole-5-carboxamide]	6.44
6.89	O=C(CC1CC(F)(F)C1)N[C@@H](c1cnn2cc([C@@H](NC(=O)[C@H]3C[C@@H]3C(F)(F)F)C3CCC(F)(F)CC3)nc2c1)C1CC1 (relative stereo) [Example 143, (Trans-1S*,2S*)—N—((S)-(7-((R)-Cyclopropyl(2-(3,3-difluorocyclobutyl)acetamido)methyl)imidazo[1,2-b]pyridazin-2-yl)(4,4-difluorocyclohexyl)methyl)-2-(trifluoromethyl)cyclopropane-1-carboxamide]	6.35
5.85	O=C(CC1CC(F)(F)C1)N[C@@H](c1cnn2cc([C@@H](NC(=O)[C@@H]3C[C@H]3C(F)(F)F)C3CCC(F)(F)CC3)nc2c1)C1CC1 (relative stereo) [Example 144, (Trans-1R*,2R*)—N—((S)-(7-((R)-Cyclopropyl(2-(3,3-difluorocyclobutyl)acetamido)methyl)imidazo[1,2-b]pyridazin-2-yl)(4,4-difluorocyclohexyl)methyl)-2-(trifluoromethyl)cyclopropane-1-carboxamide]	5.15
6.62	O=C(CCC(F)(F)F)N[C@@H](c1cnn2cc([C@@H](NC(=O)[C@H]3C[C@@H]3C(F)(F)F)C3CCC(F)(F)CC3)nc2c1)C1CC1 (relative stereo) [Example 149, (Trans-1S*,2S*)—N—((S)-(7-((R)-Cyclopropyl(4,4,4-trifluorobutanamido)methyl)imidazo[1,2-b]pyridazin-2-yl)(4,4-difluorocyclohexyl)methyl)-2-(trifluoromethyl)cyclopropane-1-carboxamide]	6.29
5.89	O=C(CCC(F)(F)F)N[C@@H](c1cnn2cc([C@@H](NC(=O)[C@@H]3C[C@H]3C(F)(F)F)C3CCC(F)(F)CC3)nc2c1)C1CC1 (relative stereo) [Example 150, (Trans-1R*, 2R*)—N—((S)-(7-((R)-Cyclopropyl(4,4,4-trifluorobutanamido)methyl)imidazo[1,2-b]pyridazin-2-yl)(4,4-difluorocyclohexyl)methyl)-2-(trifluoromethyl)cyclopropane-1-carboxamide]	< 4.70
5.47	C[C@H](CC(=O)N[C@@H](c1cnn2cc([C@@H](NC(=O)[C@@H]3C[C@H]3C(F)(F)F)C3CCC(F)(F)CC3)nc2c1)C1CC1)C(F)(F)F (relative stereo) [Example 241, (trans-1R*,2R*)—N—((S)-(7-((R)-Cyclopropyl((R*)-4,4,4-trifluoro-3-methylbutanamido)methyl)imidazo[1,2-b]pyridazin-2-yl)(4,4-difluorocyclohexyl)methyl)-2-(trifluoromethyl)cyclopropane-1-carboxamide]	< 4.70
5.89	C[C@@H](CC(=O)N[C@@H](c1cnn2cc([C@@H](NC(=O)[C@@H]3C[C@H]3C(F)(F)F)C3CCC(F)(F)CC3)nc2c1)C1CC1)C(F)(F)F (relative stereo) [Example 242, (trans-1R*,2R*)—N—((S)-(7-((R)-Cyclopropyl((S*)-4,4,4-trifluoro-3-methylbutanamido)methyl)imidazo[1,2-b]pyridazin-2-yl)(4,4-difluorocyclohexyl)methyl)-2-(trifluoromethyl)cyclopropane-1-carboxamide]	6.10
6.77	Cc1nonc1C(=O)N[C@H](c1cn2ncc([C@H](NC(=O)C[C@H]3CC3(F)F)C3CC3)cc2n1)C1CCC(F)(F)CC1 (relative stereo) [Example 255]	6.22
7.25	Cc1nonc1C(=O)N[C@H](c1cn2ncc([C@H](NC(=O)CC3CC3(F)F)C3CC3)cc2n1)C1CCC(F)(F)CC1 (relative stereo) [Example 256]	6.60
